From ChEMBL document CHEMBL3879893, “Nuclear transport modulators and uses thereof” (2011)
pIC50: −log10 of the molar value. Active and inactive are the calls of the source. The rule behind the calls is not given here.

How the values were obtained:
Exportin-1 [1] = target: T1, Exportin-1 (Homo sapiens, UniProt O14980); assay: Inhibition of Crm1 in human U2OS cells expressing GFP-fused HIV1 Rev assessed as decrease in nuclear export of GFP-fused HIV1 Rev after 1 hr by Hoechst 33258 staining-based assay; assay type: cell-based
T1 sequence (O14980 whole entry, the tested form may be a part): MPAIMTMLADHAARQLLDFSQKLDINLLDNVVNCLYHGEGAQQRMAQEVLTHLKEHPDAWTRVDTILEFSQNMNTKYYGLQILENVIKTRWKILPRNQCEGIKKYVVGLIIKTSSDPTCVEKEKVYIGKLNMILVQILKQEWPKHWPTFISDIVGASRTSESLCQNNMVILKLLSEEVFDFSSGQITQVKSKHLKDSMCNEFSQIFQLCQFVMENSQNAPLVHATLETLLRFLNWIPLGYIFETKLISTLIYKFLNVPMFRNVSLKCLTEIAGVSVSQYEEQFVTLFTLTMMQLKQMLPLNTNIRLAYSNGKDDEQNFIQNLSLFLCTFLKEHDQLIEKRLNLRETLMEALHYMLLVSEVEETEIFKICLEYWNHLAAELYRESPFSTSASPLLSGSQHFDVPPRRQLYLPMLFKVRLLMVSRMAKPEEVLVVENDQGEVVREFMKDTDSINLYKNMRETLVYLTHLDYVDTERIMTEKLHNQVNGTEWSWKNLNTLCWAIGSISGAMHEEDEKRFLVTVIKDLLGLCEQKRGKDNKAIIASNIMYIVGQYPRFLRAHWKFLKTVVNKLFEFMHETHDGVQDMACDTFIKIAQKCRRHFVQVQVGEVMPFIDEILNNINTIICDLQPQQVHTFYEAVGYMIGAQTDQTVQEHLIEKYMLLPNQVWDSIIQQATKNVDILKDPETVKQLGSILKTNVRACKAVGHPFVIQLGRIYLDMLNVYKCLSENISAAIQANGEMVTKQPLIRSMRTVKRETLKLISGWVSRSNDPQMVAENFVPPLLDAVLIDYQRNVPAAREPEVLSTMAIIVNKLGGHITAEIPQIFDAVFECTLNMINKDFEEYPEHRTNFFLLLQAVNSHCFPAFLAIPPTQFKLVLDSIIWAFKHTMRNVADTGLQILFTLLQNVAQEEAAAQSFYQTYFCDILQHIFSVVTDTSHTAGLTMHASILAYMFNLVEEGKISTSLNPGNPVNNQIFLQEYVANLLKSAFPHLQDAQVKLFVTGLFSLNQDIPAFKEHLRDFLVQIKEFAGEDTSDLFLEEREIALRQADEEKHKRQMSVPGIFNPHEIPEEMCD

BL-41 = assay: Cytotoxicity against human BL41 cells after 72 hrs by CellTiter96 AQueous one solution cell proliferation assay; assay type: functional, cell-based
Jurkat = assay: Cytotoxicity against human Jurkat cells after 72 hrs by CellTiter96 AQueous one solution cell proliferation assay; assay type: functional, cell-based
MM1R = assay: Cytotoxicity against human MM1R cells after 72 hrs by CellTiter96 AQueous one solution cell proliferation assay; assay type: functional, cell-based
HCT-116 = assay: Cytotoxicity against human HCT116 cells after 72 hrs by CellTiter96 AQueous one solution cell proliferation assay; assay type: functional, cell-based
HS-Sultan = assay: Cytotoxicity against human HS-Sultan cells after 72 hrs by CellTiter96 AQueous one solution cell proliferation assay; assay type: functional, cell-based
PC-3 = assay: Cytotoxicity against human PC3 cells after 72 hrs by CellTiter96 AQueous one solution cell proliferation assay; assay type: functional, cell-based
MG-63 = assay: Cytotoxicity against human MG63 cells after 72 hrs by CellTiter96 AQueous one solution cell proliferation assay; assay type: functional, cell-based
SW480 = assay: Cytotoxicity against human SW480 cells after 72 hrs by CellTiter96 AQueous one solution cell proliferation assay; assay type: functional, cell-based
NCI-H460 = assay: Cytotoxicity against human NCI-H460 cells after 72 hrs by CellTiter96 AQueous one solution cell proliferation assay; assay type: functional, cell-based
LoVo = assay: Cytotoxicity against human LoVo cells after 72 hrs by CellTiter96 AQueous one solution cell proliferation assay; assay type: functional, cell-based
NCI-H520 = assay: Cytotoxicity against human NCI-H520 cells after 72 hrs by CellTiter96 AQueous one solution cell proliferation assay; assay type: functional, cell-based
COLO 320 = assay: Cytotoxicity against human COLO320 cells after 72 hrs by CellTiter96 AQueous one solution cell proliferation assay; assay type: functional, cell-based
RPMI18226 = assay: Cytotoxicity against human […] cells after 72 hrs by CellTiter96 AQueous one solution cell proliferation assay; assay type: functional, cell-based
SW-620 = assay: Cytotoxicity against human SW620 cells after 72 hrs by CellTiter96 AQueous one solution cell proliferation assay; assay type: functional, cell-based
Homo sapiens [2] = species on record: Homo sapiens; assay: Cytotoxicity against human LS123 cells after 72 hrs by CellTiter96 AQueous one solution cell proliferation assay; assay type: functional, cell-based
NCI-H226 = assay: Cytotoxicity against human NCI-H226 cells after 72 hrs by CellTiter96 AQueous one solution cell proliferation assay; assay type: functional, cell-based
MCF7 = assay: Cytotoxicity against human MCF7 cells after 72 hrs by CellTiter96 AQueous one solution cell proliferation assay; assay type: functional, cell-based
HCC4006 = assay: Cytotoxicity against human HCC4006 cells after 72 hrs by CellTiter96 AQueous one solution cell proliferation assay; assay type: functional, cell-based
HCT-15 = assay: Cytotoxicity against human HCT15 cells after 72 hrs by CellTiter96 AQueous one solution cell proliferation assay; assay type: functional, cell-based
786-0 = assay: Cytotoxicity against human 786-0 cells after 72 hrs by CellTiter96 AQueous one solution cell proliferation assay; assay type: functional, cell-based
HCC827 = assay: Cytotoxicity against human HCC827 cells after 72 hrs by CellTiter96 AQueous one solution cell proliferation assay; assay type: functional, cell-based
NCI-H1838 = assay: Cytotoxicity against human NCI-H1838 cells after 72 hrs by CellTiter96 AQueous one solution cell proliferation assay; assay type: functional, cell-based
4T1 = assay: Cytotoxicity against mouse 4T1 cells after 72 hrs by CellTiter96 AQueous one solution cell proliferation assay; assay type: functional, cell-based
HeLa = assay: Cytotoxicity against human HeLa cells after 72 hrs by CellTiter96 AQueous one solution cell proliferation assay; assay type: functional, cell-based
HPAC = assay: Cytotoxicity against human HPAC cells after 72 hrs by CellTiter96 AQueous one solution cell proliferation assay; assay type: functional, cell-based
Caov-3 = assay: Cytotoxicity against human Caov3 cells after 72 hrs by CellTiter96 AQueous one solution cell proliferation assay; assay type: functional, cell-based
DLD-1 = assay: Cytotoxicity against human DLD1 cells after 72 hrs by CellTiter96 AQueous one solution cell proliferation assay; assay type: functional, cell-based
DU-145 = assay: Cytotoxicity against human DU145 cells after 72 hrs by CellTiter96 AQueous one solution cell proliferation assay; assay type: functional, cell-based
LS180 = assay: Cytotoxicity against human LS180 cells after 72 hrs by CellTiter96 AQueous one solution cell proliferation assay; assay type: functional, cell-based
HCT-8 = assay: Cytotoxicity against human HCT8 cells after 72 hrs by CellTiter96 AQueous one solution cell proliferation assay; assay type: functional, cell-based
NCI-H2122 = assay: Cytotoxicity against human NCI-H2122 cells after 72 hrs by CellTiter96 AQueous one solution cell proliferation assay; assay type: functional, cell-based
WiDr = assay: Cytotoxicity against human WiDr cells after 72 hrs by CellTiter96 AQueous one solution cell proliferation assay; assay type: functional, cell-based
Homo sapiens [3] = species on record: Homo sapiens; assay: Cytotoxicity against human H2935 cells after 72 hrs by CellTiter96 AQueous one solution cell proliferation assay; assay type: functional, cell-based
NCI-H2030 = assay: Cytotoxicity against human NCI-H2030 cells after 72 hrs by CellTiter96 AQueous one solution cell proliferation assay; assay type: functional, cell-based
Exportin-1 [4] = target: T1, Exportin-1; assay: Inhibition of Crm1 in human MM1S cells assessed as potentiation of bortezomib-induced antiproliferative activity by measuring cell survival at 30 to 300 nM after 72 hrs by MTT assay; assay type: cell-based
Exportin-1 [5] = target: T1, Exportin-1; assay: Inhibition of Crm1 in human MM1R cells assessed as potentiation of bortezomib-induced antiproliferative activity by measuring cell survival at 30 to 300 nM after 72 hrs by MTT assay; assay type: cell-based
Exportin-1 [6] = target: T1, Exportin-1; assay: Inhibition of Crm1 in human HS-Sultan cells assessed as potentiation of bortezomib-induced antiproliferative activity by measuring cell survival at 30 to 300 nM after 72 hrs by MTT assay; assay type: cell-based
Exportin-1 [7] = target: T1, Exportin-1; assay: Inhibition of Crm1 in human Jurkat cells assessed as potentiation of bortezomib-induced antiproliferative activity by measuring cell survival at 30 to 300 nM after 72 hrs by MTT assay; assay type: cell-based
MM1.S [8] = assay: Antitumor activity against 130 mm'3 human MM1S cells xenografted in mouse assessed as tumor growth inhibition at 150 mg/kg, sc qd administered for 5 days; assay type: functional, organism-based
MM1.S [9] = assay: Antitumor activity against 1300 mm'3 human MM1S cells xenografted in mouse assessed as tumor growth inhibition at 150 mg/kg, sc qd administered for 5 days; assay type: functional, organism-based
[10] = Antitumor activity against 350 mm'3 human HCT116 cells xenografted in mouse assessed as tumor growth inhibition at 75 mg/kg, sc qd administered for 5 days measured after day 24 relative to control; assay type: functional; conditions: HCT-116, sc, read-out: TGI
[11] = Antitumor activity against 350 mm'3 human HCT116 cells xenografted in mouse assessed as tumor growth inhibition at 150 mg/kg, sc qd administered for 5 days started on day 9 post 75 mg/kg dosing measured after day 24 relative to control; assay type: functional, HCT-116
[12] = Toxicity in mouse xenografted with 350 mm'3 human HCT116 cells assessed as effect on clinical chemistry parameters at 150 mg/kg, sc qd administered for 5 days started on day 9 post 75 mg/kg dosing; assay type: organism-based, HCT-116; conditions: in vivo, 120 h
[13] = Toxicity in mouse xenografted with 350 mm'3 human HCT116 cells assessed as effect on complete blood count at 150 mg/kg, sc qd administered for 5 days started on day 9 post 75 mg/kg dosing; assay type: organism-based, HCT-116; conditions: in vivo, 120 h

CC(C)OC(=O)/C=C\n1cnc(-c2ccc(Cl)cc2)n1
pIC50 (Exportin-1 [1]): ≥ 6.00
Activity (BL-41): Active
Activity (Jurkat): Active
Activity (MM1R): Active
Activity (HCT-116): Active
Activity (HS-Sultan): Active
Activity (PC-3): Active
Activity (MG-63): Active
Activity (SW480): Active
Activity (NCI-H460): Active
Activity (LoVo): Active
Activity (NCI-H520): Active
Activity (COLO 320): Active
Activity (RPMI18226): Active
Activity (SW-620): Active
Activity (Homo sapiens [2]): Active
Activity (NCI-H226): Active
Activity (MCF7): Active
Activity (HCC4006): Active
Activity (HCT-15): Active
Activity (786-0): Active
Activity (HCC827): Active
Activity (NCI-H1838): Active
Activity (4T1): Active
Activity (HeLa): Active
Activity (HPAC): Active
Activity (Caov-3): Active
Activity (DLD-1): Active
Activity (DU-145): Active
Activity (LS180): Active
Activity (HCT-8): Active
Activity (NCI-H2122): Active
Activity (WiDr): Active
Activity (Homo sapiens [3]): Active
Activity (NCI-H2030): Active
inhibition (Exportin-1 [4]): Active
inhibition (Exportin-1 [5]): Active
inhibition (Exportin-1 [6]): Active
inhibition (Exportin-1 [7]): Active
TGI (MM1.S [8]): Active
TGI (MM1.S [9]): Active
inhibition in vivo at 75 mg/kg [10]: 31%
TGI [11]: 60%
Activity [12]: Non-Toxic
Activity [13]: Non-Toxic
